How the values were obtained:
[1] = Table 11a; known ionizable lipids, LNP pKa; cited from earlier work
[2] = assay type: physicochemical; conditions: Table 11a
Protocol: In certain embodiments, the pKa of the Ionizable Lipids of the Invention included in the LNP is measured by fluorescent enhancement of an anionic lipophilic dye TNS binding to the LNP containing the ionizable lipid. Prior studies have shown that the TNS pKa needs to be near 6.5 for efficient delivery to liver upon IV administration. The pKa in the aqueous phase can be predicted by software such ACDLabs Percepta, resulting in pKas that are higher than the TNS pKa. Given the importance of the LNP pKa in determining their efficiency, we developed new methods (zeta potential, ^1H NMR, modeling) to link the intrinsic pKa of the ionizable lipid to LNP ionization properties, in order to rationally design effective systems for mRNA delivery.
In certain embodiments, the hydrophilic DMG-PEG forms the shell of the LNP. The amount of nucleic acid is represented by the NP mole ratio of the amine on the ionizable lipid to the phosphate groups on the nucleic acid backbone and is typically 3-6. In certain embodiments, the pKa of the LNP to be in the 6-7 range corresponding to the pH in the early endosome. […] The pKa of the LNP was measured using the pH-dependence of fluorescence enhancement of the anionic dye TNS. In certain embodiments, the pKa-dependent endosomal release mechanism was described as an ion-pairing event between the cationic protonated ionizable lipid and anionic endosomal phospholipids where a divergent cone-shape lipid tail of the ionizable lipid facilitates membrane rupture.

Question: Which “pKa, TNS” value [1] does the source give for `CCCCC/C=C\C/C=C\CCCCCCCCC(CCCCCCCC/C=C\C/C=C\CCCCC)OC(=O)CCCN(C)C` [MC3] here?
Answer: 6.44

Question: What about the “ΔpKa = Classic-Galas” value [2] of the same compound?
Answer: 2.66

Question: And the “ΔpKa = Classic-TNS” value [2]?
Answer: 2.96

Question: With `CCCCCCCCCCOC(=O)CCCCCN(CCO)CCCCCCCC(=O)OC(CCCCCCCC)CCCCCCCC` [Moderna Lipid H] as the compound, how does the “pKa, TNS” value [1] read?
Answer: 6.68

Question: And the “ΔpKa = Classic-Galas” value [2]?
Answer: 3.12

Question: And the “ΔpKa = Classic-TNS” value [2]?
Answer: 2.22

Question: With `CCCCCCCC(=O)N(CCCN1CCCC1)C(CCCCCCCCC(=O)OC(CCCC)CCCCCC)CCCCCCCCC(=O)OC(CCCC)CCCCCC` (stereo not drawn) [Acuitas Compound 15] as the compound, how does the “pKa, TNS” value [1] read?
Answer: 6.32

Question: And the “ΔpKa = Classic-Galas” value [2]?
Answer: 3.38

Question: What about the “ΔpKa = Classic-TNS” value [2] of the same compound?
Answer: 3.98

From patent US12576040B2, “Ionizable lipids and methods of manufacture and use thereof” (priority 2020, dated 2026)
